From patent US9890117B2, “Benzamide compounds and related methods of use” (Northwestern University, priority 2012, dated 2018)

Tests used:
SIRT2 = biological target: T1, SIRT2 (Homo sapiens, UniProt Q8IXJ6); assay: Fluor-de-Lys biochemical sirtuin deacetylation assay, SIRT2; conditions: 10 μM
T1 construct: recombinant active enzymes SIRT1, SIRT2, and the catalytically active fragment of SIRT3
T1 sequence (Q8IXJ6 1-389): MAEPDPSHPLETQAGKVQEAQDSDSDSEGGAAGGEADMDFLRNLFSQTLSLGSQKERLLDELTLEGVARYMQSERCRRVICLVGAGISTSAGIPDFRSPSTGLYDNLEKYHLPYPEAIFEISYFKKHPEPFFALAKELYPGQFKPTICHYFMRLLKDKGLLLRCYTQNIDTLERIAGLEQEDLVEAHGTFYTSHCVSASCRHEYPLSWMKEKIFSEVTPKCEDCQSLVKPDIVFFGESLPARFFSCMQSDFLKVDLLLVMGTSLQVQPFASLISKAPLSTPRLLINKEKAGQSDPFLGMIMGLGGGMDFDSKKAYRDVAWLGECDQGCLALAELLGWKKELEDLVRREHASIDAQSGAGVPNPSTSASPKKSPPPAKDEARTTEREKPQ

Row | SMILES | melting point | inhibition at 10 µM (SIRT2) [%]
1 | CN(C(=O)c1cccc(S(=O)(=O)N(C)c2ccc(Cl)cc2)c1)c1ccc(C#N)cc1F [Compound 203Ac, 3-(N-(4-chlorophenyl)-N-methylsulfamoyl)-N-(4-cyano-2-fluorophenyl)-N-methylbenzamide] | 169 to 170 °C | 15
2 | CN(c1ccc(S(C)(=O)=O)cc1)S(=O)(=O)c1cccc(C(=O)Nc2ccc(Cl)cc2F)c1 [Compound 203Ae, N-(4-chloro-2-fluorophenyl)-3-(N-methyl-N-(4-(methylsulfonyl)phenyl)sulfamoyl)-benzamide] | 182 to 183 °C | 26
3 | CN(c1ccc(CN)cc1)S(=O)(=O)c1cccc(C(=O)Nc2ccc(C#N)cc2)c1.Cl [Compound 203Af, 3-(N-(4-(aminomethyl)phenyl)-N-methylsulfamoyl)-N-(4-cyanophenyl)benzamide hydrochloride] | 169 to 171 °C | 15
4 | CN(C(=O)c1cccc(S(=O)(=O)N(C)c2ccc(S(C)(=O)=O)cc2)c1)c1ccc(Cl)cc1F [Compound 203Ah, N-(4-chloro-2-fluorophenyl)-N-methyl-3-(N-methyl-N-(4-(methylsulfonyl)phenyl)-sulfamoyl)benzamide] | 159 to 160 °C | 16
5 | CN(c1ccc([S+](C)[O-])cc1)S(=O)(=O)c1cc(C(=O)Nc2ccc(Cl)cc2F)ccn1 (stereo not shown) [Compound 203Aq, N-(4-chloro-2-fluorophenyl)-2-(N-methyl-N-(4-(methylsulfinyl)phenyl)sulfamoyl)-isonicotinamide] | 178 to 179 °C | 14
6 | CN(c1ccc(S(C)(=O)=O)cc1)S(=O)(=O)c1cc(C(=O)Nc2ccc(C#N)cc2)ccn1 [Compound 203As, N-(4-cyanophenyl)-2-(N-methyl-N-(4-(methylsulfonyl)phenyl)sulfamoyl)-isonicotinamide] | 224 to 226 °C | 33
7 | N#Cc1ccc(NC(=O)c2cccc(S(=O)(=O)N(c3ccc(Cl)cc3)C3CC3)c2)cc1 [Compound 203Av, 3-(N-(4-chlorophenyl)-N-cyclopropylsulfamoyl)-N-(4-cyanophenyl)benzamide] | 180 to 182 °C | 51
8 | CCN(c1ccc(O)cc1)S(=O)(=O)c1cccc(C(=O)Nc2ccc(C#N)cc2)c1 [Compound 203Ay, N-(4-cyanophenyl)-3-(N-ethyl-N-(4-hydroxyphenyl)sulfamoyl)benzamide] | 102 to 104 °C | 40
9 | CCCN(CCC)S(=O)(=O)c1cccc(C(=O)Nc2ccc(Br)cc2C)c1 [Compound 203c, N-(4-bromo-2-methylphenyl)-3-(N,N-dipropylsulfamoyl)benzamide] | 135 to 136 °C | 0
10 | CCCN(CCC)S(=O)(=O)c1cccc(C(=O)Nc2cccc([N+](=O)[O-])c2)c1 [Compound 203h, 3-(N,N-dipropylsulfamoyl)-N-(3-nitrophenyl)benzamide] | 126 to 128 °C | 50
11 | CC(=O)Nc1cccc(NC(=O)c2cccc(S(=O)(=O)N3CCCCCC3)c2)c1 [Compound 203k, N-(3-acetamidophenyl)-3-(azepan-1-ylsulfonyl)benzamide] | 117 to 120 °C | 59
12 | Cc1cc(F)ccc1NC(=O)c1cccc(S(=O)(=O)N(C)c2ccc(Br)cc2)c1 [Compound 203o, 3-(N-(4-bromophenyl)-N-methylsulfamoyl)-N-(4-fluoro-2-methylphenyl)benzamide] | 163 to 165 °C | 14
13 | CN(c1ccc(Br)cc1)S(=O)(=O)c1cccc(C(=O)Nc2ccc(Cl)cc2F)c1 [Compound 203q, 3-(N-(4-bromophenyl)-N-methylsulfamoyl)-N-(4-chloro-2-fluorophenyl)benzamide] | 117 to 118 °C | 29

More lines, now with the values ahead:

Row | melting point | inhibition at 10 µM (SIRT2) [%] | SMILES
14 | 104 to 106 °C | 14 | CN(C(=O)c1cccc(S(=O)(=O)N(C)c2ccc([S+](C)[O-])cc2)c1)c1ccc(Cl)cc1F (stereo not shown) [Compound 203Ag, N-(4-chloro-2-fluorophenyl)-N-methyl-3-(N-methyl-N-(4-(methylsulfinyl)phenyl)-sulfamoyl)benzamide]
15 | 188 to 189 °C | 16 | CN(c1ccc(S(C)(=O)=O)cc1)S(=O)(=O)c1cccc(C(=O)Nc2ccc(C#N)cc2F)c1 [Compound 203Ai, N-(4-cyano-2-fluorophenyl)-3-(N-methyl-N-(4-(methylsulfonyl)phenyl)-sulfamoyl)benzamide]
16 | 192 to 194 °C | 10 | CN(c1ccc([S+](C)[O-])cc1)S(=O)(=O)c1cccc(C(=O)Nc2ccc(C#N)cc2F)c1 (stereo not shown) [Compound 203Aj, N-(4-cyano-2-fluorophenyl)-3-(N-methyl-N-(4-(methylsulfinyl)phenyl)sulfamoyl)-benzamide]
17 | 156 to 157 °C | 0 | CN(C(=O)c1cccc(S(=O)(=O)N(C)c2ccc(S(C)(=O)=O)cc2)c1)c1ccc(C#N)cc1F [Compound 203Ak, N-(4-cyano-2-fluorophenyl)-N-methyl-3-(N-methyl-N-(4-(methylsulfonyl)phenyl)-sulfamoyl)benzamide]
18 | 148 to 150 °C | 0 | CN(C(=O)c1cccc(S(=O)(=O)N(C)c2ccc([S+](C)[O-])cc2)c1)c1ccc(C#N)cc1F (stereo not shown) [Compound 203Al, N-(4-cyano-2-fluorophenyl)-N-methyl-3-(N-methyl-N-(4-(methylsulfinyl)phenyl)-sulfamoyl)benzamide]
19 | 172 to 174 °C | 28 | CN(c1ccc(Cl)cc1)S(=O)(=O)c1cc(C(=O)Nc2ccc([S+](C)[O-])cc2)ccn1 (stereo not shown) [Compound 203An, 2-(N-(4-chlorophenyl)-N-methylsulfamoyl)-N-(4-(methylsulfinyl)phenyl)-isonicotinamide]
20 | 243 to 245 °C (dec.) | 20 | CN(c1ccc([S+](C)[O-])cc1)S(=O)(=O)c1cc(C(=O)Nc2ccc(C#N)cc2)ccn1 (stereo not shown) [Compound 203Ar, N-(4-cyanophenyl)-2-(N-methyl-N-(4-(methylsulfinyl)phenyl)sulfamoyl)-isonicotinamide]
21 | 185 to 186 °C | 61 | CC(=O)c1ccc(N(C2CC2)S(=O)(=O)c2cccc(C(=O)Nc3ccc(C#N)cc3)c2)cc1 [Compound 203Aw, 3-(N-(4-acetylphenyl)-N-cyclopropylsulfamoyl)-N-(4-cyanophenyl)benzamide]
22 | 168 to 169 °C | 59 | CCOc1ccc(N(CC)S(=O)(=O)c2cccc(C(=O)Nc3ccc(C#N)cc3)c2)cc1 [Compound 203Az, N-(4-cyanophenyl)-3-(N-(4-ethoxyphenyl)-N-ethylsulfamoyl)benzamide]
23 | 168 to 169 °C | 53 | CCN(c1ccc(OC)cc1)S(=O)(=O)c1cccc(C(=O)Nc2ccc(C#N)cc2)c1 [Compound 203Ba, N-(4-cyanophenyl)-3-(N-ethyl-N-(4-methoxyphenyl)sulfamoyl)benzamide]
24 | 177 to 179 °C | 0 | Cc1cc(Br)ccc1NC(=O)c1cccc(S(=O)(=O)N2CCCCCC2)c1 [Compound 203b, 3-(azepan-1-ylsulfonyl)-N-(4-bromo-2-methylphenyl)benzamide]
25 | 160 to 162 °C | 9 | CCCN(CCC)S(=O)(=O)c1cccc(C(=O)Nc2ccc(Br)cc2)c1 [Compound 203d, N-(4-bromophenyl)-3-(N,N-dipropylsulfamoyl)benzamide]
26 | 105 to 107 °C | 60 | CCCN(CCC)S(=O)(=O)c1cccc(C(=O)Nc2cccc(Br)c2)c1 [Compound 203f, N-(3-bromophenyl)-3-(N,N-dipropylsulfamoyl)benzamide]
27 | 124 to 125 °C | 25 | Cc1cc(Cl)ccc1N(C)C(=O)c1cccc(S(=O)(=O)N(C)c2ccc(Br)cc2)c1 [Compound 203l, 3-(N-(4-bromophenyl)-N-methylsulfamoyl)-N-(4-chloro-2-methylphenyl)-N-methylbenzamide]
28 | 104 to 105 °C | 28 | Cc1cc(F)ccc1N(C)C(=O)c1cccc(S(=O)(=O)N(C)c2ccc(Br)cc2)c1 [Compound 203m, 3-(N-(4-bromophenyl)-N-methylsulfamoyl)-N-(4-fluoro-2-methylphenyl)-N-methylbenzamide]
29 | 163 to 164 °C | 18 | Cc1cc(Cl)ccc1NC(=O)c1cccc(S(=O)(=O)N(C)c2ccc(Br)cc2)c1 [Compound 203n, 3-(N-(4-bromophenyl)-N-methylsulfamoyl)-N-(4-chloro-2-methylphenyl)benzamide]
30 | 127 to 128 °C | – | CN(C(=O)c1cccc(S(=O)(=O)N(C)c2ccc(Br)cc2)c1)c1ccc(Cl)cc1F [Compound 203p, 3-(N-(4-bromophenyl)-N-methylsulfamoyl)-N-(4-chloro-2-fluorophenyl)-N-methylbenzamide]
31 | 136 to 137 °C | – | CN(C(=O)c1cccc(S(=O)(=O)N(C)c2ccc(Br)cc2)c1)c1ccc(Br)cc1F [Compound 203s, N-(4-bromo-2-fluorophenyl)-3-(N-(4-bromophenyl)-N-methylsulfamoyl)-N-methylbenzamide]
32 | 135 to 136 °C | – | O=C(Cc1ccc(Cl)cc1)c1cccc(S(=O)(=O)N2CCCCCC2)c1 [Compound 231a, 1-(3-(azepan-1-ylsulfonyl)phenyl)-2-(4-chlorophenyl)ethanone]
